# According to paper PMC10906247, “From Functional Fatty Acids to Potent and Selective Natural-Product-Inspired Mimetics via Conformational Profiling” (ACS Central Science, 2024):
# Read-outs that look alike come from different tables or passages of the source.
# Tests used:
# GPR40 = details: oleic acid; stimulatory activity on CHO-mGPR40 cells; read-out: GPR40 EC50 historical; cited from earlier work
# MIN6 cells = tested on: MIN6 cells; parameters: method as in PMID 12629551, PMID 12496284; details: cited from earlier work
# [1] = target: T1, TLX ligand binding domain (Homo sapiens, UniProt Q9Y466); test: TLX ligand sensing assay (AlphaScreen, RIP140 NR box peptide recruitment); format: biochemical
# T1 construct: purchased NovAliX SAS, Strasbourg, France
# GPR40 (FFAR1) = GPR40 (FFAR1) (Homo sapiens, UniProt O14842); test: PathHunter β-arrestin assay (Eurofins Discovery), GPR40; format: cell-based
# Experimental: (§1) With these compounds in hand, attention was directed at evaluating their properties as ligands to GPR40, GPR120,[24] and TLX. Initial profiling experiments were conducted targeting the GPCR targets at a single concentration (15 μM) in a commercially available β-arrestin assay.
# (§2) Functional assays at GPR40 and GPR120 were conducted by Eurofins Discovery services using their PathHunter® b-Arrestin assay that monitors the activation of a GPCR in a homogenous, non-imaging assay format using a technology developed by DiscoverX called Enzyme Fragment Complementation (EFC) with b-galactosidase (b-Gal) as the functional reporter. b-Arrestin GPCR cell lines built on the principles of EFC are engineered to co-express the ProLinkTM (PK) tagged GPCR and the Enzyme Acceptor (EA) tagged b-Arrestin. Activation of the GPCR-PK induces b-Arrestin-EA recruitment, forcing complementation of the two b-galactosidase enzyme fragments (EA and PK). The resulting functional enzyme hydrolyzes substrate to generate chemiluminescent […]
# (§3) Additional information can be found at: www.eurofinsdiscovery.com/solution/b-arrestin Below are dose-response curves generated from Eurofins Discovery services for activity of ligands depicted in Figure 6B at GPR40 (FFAR1) and GPR120. […]
# GPR120 [2] = target: T2, GPR120 (Homo sapiens, UniProt Q5NUL3); test: PathHunter β-arrestin assay (Eurofins Discovery), GPR120; format: cell-based
# T2 sequence (Q5NUL3 1-361): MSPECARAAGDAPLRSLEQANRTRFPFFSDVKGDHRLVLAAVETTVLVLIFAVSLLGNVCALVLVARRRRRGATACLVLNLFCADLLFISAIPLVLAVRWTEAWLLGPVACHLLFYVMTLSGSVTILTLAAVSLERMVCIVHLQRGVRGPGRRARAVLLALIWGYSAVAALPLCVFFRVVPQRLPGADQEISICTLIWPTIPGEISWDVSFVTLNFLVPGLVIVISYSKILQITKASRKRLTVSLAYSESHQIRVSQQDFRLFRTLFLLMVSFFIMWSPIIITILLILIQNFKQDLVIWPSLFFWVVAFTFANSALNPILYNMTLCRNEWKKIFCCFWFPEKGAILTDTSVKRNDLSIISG
# Experimental: as §1, §2, §3
# GPR120 [3] = target: T2, GPR120; details: read-out: GPR120 EC50 historical; oleic acid; cited from earlier work
# [4] = dose-response, oleic acid = 100
# T1 sequence (Q9Y466 155-383 limits assumed): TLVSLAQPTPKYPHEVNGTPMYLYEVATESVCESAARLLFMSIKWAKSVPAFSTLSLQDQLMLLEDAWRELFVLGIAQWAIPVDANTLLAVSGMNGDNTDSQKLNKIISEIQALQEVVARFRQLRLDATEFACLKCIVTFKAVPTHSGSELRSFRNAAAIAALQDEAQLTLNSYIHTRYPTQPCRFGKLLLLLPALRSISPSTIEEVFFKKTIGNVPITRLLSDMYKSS
# GPR40 (FFAR1), sequence (O14842 whole entry): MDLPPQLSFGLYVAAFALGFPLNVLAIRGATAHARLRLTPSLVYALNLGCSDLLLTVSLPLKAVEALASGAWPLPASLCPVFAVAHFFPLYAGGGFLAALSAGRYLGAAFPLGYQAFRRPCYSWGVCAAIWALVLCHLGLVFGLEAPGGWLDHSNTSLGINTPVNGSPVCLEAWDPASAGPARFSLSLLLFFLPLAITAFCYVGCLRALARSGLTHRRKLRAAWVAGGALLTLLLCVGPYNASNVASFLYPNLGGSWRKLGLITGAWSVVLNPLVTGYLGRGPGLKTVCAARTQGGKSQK
smiles,measurement,setting,value
"CCCCCCCC/C=C\CCCCCCCC(=O)O [oleic acid, reference compound]",EC50,GPR40,2 µM
same,concentration inducing insulin secretion,MIN6 cells,≥ 1 µM
same,EC50,[1],3.55 µM
same,enhanced recruitment of a coactivator protein fragment,[1],8.4 fold
same,EC50,"[1]; ALPHA normalized, supplement, read-out: TLX EC50 (dose-response curves)",3.55 µM
same,EC50,"[1]; coactivator recruitment, read-out: TLX EC50",3.6 µM
same,TLX max. efficacy,[1]; oleic acid = 100,100%
same,EC50,GPR40 (FFAR1); GPR40 EC50 measured,37 µM
same,GPR40 max. efficacy,GPR40 (FFAR1); [4],100%
same,right shift of GPR40 result relative to reported historical activity,GPR40 (FFAR1); measured vs historical EC50,~20 fold
same,EC50,GPR120 [2]; GPR120 EC50 measured,15 µM
same,GPR120 max. efficacy,GPR120 [2]; [4],100%
same,EC50,GPR120 [3],12 µM
